Source: US6737383B1, “Herbicidal oxadiazolidines” (priority 1999, dated 2004)

Experiments:
bedstraw = experiment: Test B pre/postemergence bedstraw; format: in vivo, Galium aparine
Method in brief: (§1)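 Test chemicals in a non-phytotoxic solvent mixture with surfactant were sprayed preemergence onto planted seeds and postemergence onto plants 2 to 18 cm tall (1- to 4-leaf stage). After twelve to sixteen days in a greenhouse, injury was visually rated against untreated controls from 0 (no effect) to 10 (complete control).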

blackgrass = experiment: Test B pre/postemergence blackgrass; format: in vivo, Alopecurus myosuroides
Method in brief: as §1

giant foxtail = experiment: Test B pre/postemergence giant foxtail; format: in vivo, Setaria faberii
Method in brief: as §1

morningglory = experiment: Test B pre/postemergence morningglory; format: in vivo, Ipomoea hederacea
Method in brief: as §1

pigweed = experiment: Test B pre/postemergence pigweed; format: in vivo, Amaranthus retroflexus
Method in brief: as §1

rape = experiment: Test B pre/postemergence rape; format: in vivo, Brassica napus
Method in brief: as §1

soybean = experiment: Test B pre/postemergence soybean; format: in vivo, Glycine max
Method in brief: as §1

sugar beet = experiment: Test B pre/postemergence sugar beet; format: in vivo, Beta vulgaris
Method in brief: as §1

velvetleaf = experiment: Test B pre/postemergence velvetleaf; format: in vivo, Abutilon theophrasti
Method in brief: as §1

wheat = experiment: Test B pre/postemergence wheat; format: in vivo, Triticum aestivum
Method in brief: as §1

wild oat = experiment: Test B pre/postemergence wild oat; format: in vivo, Avena fatua
Method in brief: as §1

purple nutsedge = experiment: Test B pre/postemergence purple nutsedge; format: in vivo, Cyperus rotundus
Method in brief: as §1

rice = experiment: Test B flood test rice; format: in vivo, Oryza sativa
Method in brief: (§2)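 Flood test on plants grown to the 2-leaf stage; treated plants kept in greenhouse twelve to sixteen days, then visually rated against controls on a 0 (no effect) to 10 (complete control) scale.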

smallflower flatsedge = experiment: Test B flood test smallflower flatsedge; format: in vivo, Cyperus difformis
Method in brief: as §2

duck salad = experiment: Test B flood test duck salad; format: in vivo, Heteranthera limosa
Method in brief: as §2

bamyardgrass = experiment: Test B flood test barnyardgrass; format: in vivo, Echinochloa crus-galli
Method in brief: as §2

[1] = Preemergence, Rate 62 g/ha, scale of 0 to 10 where 0 is no effect and 10 is complete control
[2] = Preemergence, Rate 250 g/ha, scale of 0 to 10 where 0 is no effect and 10 is complete control
[3] = Preemergence, Rate 500 g/ha, scale of 0 to 10 where 0 is no effect and 10 is complete control
[4] = Rate 62 g/ha, Postemergence, scale of 0 to 10 where 0 is no effect and 10 is complete control
[5] = Rate 125 g/ha, Postemergence, scale 0 to 10
[6] = Rate 125 g/ha, Preemergence, scale of 0 to 10 where 0 is no effect and 10 is complete control
[7] = Rate 500 g/ha, Postemergence, scale 0 to 10, 0 no effect, 10 complete control
[8] = Rate 62 g/ha, headed Pre-emergence (flood test species), scale 0 to 10 (0 no effect, 10 complete control)
[9] = Rate 125 g/ha, Pre-emergence, flood test species, scale 0 to 10 where 0 is no effect and 10 is complete control
[10] = Rate 250 g/ha, Pre-emergence, flood-test species, scale 0 to 10, 0 is no effect, 10 is complete control
[11] = Rate 500 g/ha, Pre-emergence, flood test species, scale 0 to 10 (0 no effect, 10 complete control)

**Q.** Which results are given for CC(C)N(C(=O)n1oc(=O)n(C2CC2)c1=O)c1ccc(F)cc1 [Compound 242]?
**A.** Bedstraw plant response rating (bedstraw; [1]): 0; Bedstraw plant response rating (bedstraw; [2]): 9; Plant response rating, Bedstraw (bedstraw; [3]): 10; Bedstraw plant response rating (bedstraw; [4]): 2; Bedstraw plant response rating (bedstraw; [5]): 5; Bedstraw plant response rating (bedstraw; [6]): 7; Plant response rating (0 to 10; 0 is no effect, 10 is complete control), Bedstraw (bedstraw; Rate 250 g/ha, Postemergence): 7; Bedstraw plant response rating (bedstraw; [7]): 8; Blackgrass plant response rating (blackgrass; [1]): 9; Blackgrass plant response rating (blackgrass; [2]): 10; Plant response rating, Blackgrass (blackgrass; [3]): 10; Blackgrass plant response rating (blackgrass; [4]): 8; Blackgrass plant response rating (blackgrass; [5]): 9; Blackgrass plant response rating (blackgrass; [6]): 10; Plant response rating (0 to 10; 0 is no effect, 10 is complete control), Blackgrass (blackgrass; Rate 250 g/ha, Postemergence): 9; Blackgrass plant response rating (blackgrass; [7]): 9; Giant foxtail plant response rating (giant foxtail; [1]): 10; Giant foxtail plant response rating (giant foxtail; [2]): 10; Plant response rating, Giant foxtail (giant foxtail; [3]): 10; Giant foxtail plant response rating (giant foxtail; [4]): 7; Giant foxtail plant response rating (giant foxtail; [6]): 10; Plant response rating (0 to 10; 0 is no effect, 10 is complete control), Giant foxtail (giant foxtail; Rate 250 g/ha, Postemergence): 8; Giant foxtail plant response rating (giant foxtail; [7]): 9; Morningglory plant response rating (morningglory; [1]): 2; Morningglory plant response rating (morningglory; [2]): 5; Plant response rating, Morningglory (morningglory; [3]): 10; Morningglory plant response rating (morningglory; [4]): 0; Morningglory plant response rating (morningglory; [6]): 2; Plant response rating (0 to 10; 0 is no effect, 10 is complete control), Morningglory (morningglory; Rate 250 g/ha, Postemergence): 7; Morningglory plant response rating (morningglory; [7]): 8; Redroot pigweed plant response rating (pigweed; [1]): 9; Redroot pigweed plant response rating (pigweed; [2]): 10; Plant response rating, Redroot pigweed (pigweed; [3]): 10; Redroot pigweed plant response rating (pigweed; [4]): 0; Redroot pigweed plant response rating (pigweed; [6]): 10; Plant response rating (0 to 10; 0 is no effect, 10 is complete control), Redroot pigweed (pigweed; Rate 250 g/ha, Postemergence): 4; Redroot pigweed plant response rating (pigweed; [7]): 8; Rape plant response rating (rape; [1]): 0; Rape plant response rating (rape; [2]): 10; Plant response rating, Rape (rape; [3]): 10; Rape plant response rating (rape; [4]): 0; Rape plant response rating (rape; [6]): 6; Plant response rating (0 to 10; 0 is no effect, 10 is complete control), Rape (rape; Rate 250 g/ha, Postemergence): 4; Rape plant response rating (rape; [7]): 8; Soybean plant response rating (soybean; [1]): 0; Soybean plant response rating (soybean; [2]): 6; Plant response rating, Soybean (soybean; [3]): 7; Soybean plant response rating (soybean; [4]): 4; Soybean plant response rating (soybean; [6]): 2; Soybean plant response rating (soybean; [7]): 6; Sugarbeets plant response rating (sugar beet; [1]): 3; Plant response rating, Sugarbeets (sugar beet; [3]): 8; Sugarbeets plant response rating (sugar beet; [4]): 0; Sugarbeets plant response rating (sugar beet; [6]): 7; Sugarbeets plant response rating (sugar beet; [7]): 8; Velvetleaf plant response rating (velvetleaf; [1]): 6; Velvetleaf plant response rating (velvetleaf; [2]): 8; Plant response rating, Velvetleaf (velvetleaf; [3]): 10; Velvetleaf plant response rating (velvetleaf; [4]): 3; Velvetleaf plant response rating (velvetleaf; [6]): 8; Velvetleaf plant response rating (velvetleaf; [7]): 7; Wheat plant response rating (wheat; [1]): 5; Wheat plant response rating (wheat; [2]): 9; Plant response rating, Wheat (wheat; [3]): 10; Wheat plant response rating (wheat; [4]): 4; Wheat plant response rating (wheat; [6]): 7; Wheat plant response rating (wheat; [7]): 8; Wild oats plant response rating (wild oat; [1]): 7; Wild oats plant response rating (wild oat; [2]): 9; Plant response rating, Wild oats (wild oat; [3]): 10; Wild oats plant response rating (wild oat; [4]): 0; Wild oats plant response rating (wild oat; [6]): 9; Wild oats plant response rating (wild oat; [7]): 8; Nutsedge plant response rating (purple nutsedge; [1]): 10; Nutsedge plant response rating (purple nutsedge; [2]): 10; Plant response rating, Nutsedge (purple nutsedge; [3]): 10; Nutsedge plant response rating (purple nutsedge; [4]): 0; Nutsedge plant response rating (purple nutsedge; [6]): 10; Nutsedge plant response rating (purple nutsedge; [7]): 5; Rice plant response rating (rice; [8]): 0; Rice plant response rating (rice; [9]): 0; Rice plant response rating (rice; [10]): 0; Rice plant response rating (rice; [11]): 0; S. Flatsedge plant response rating (smallflower flatsedge; [8]): 0; S. Flatsedge plant response rating (smallflower flatsedge; [9]): 0; S. Flatsedge plant response rating (smallflower flatsedge; [10]): 0; S. Flatsedge plant response rating (smallflower flatsedge; [11]): 0; Ducksalad plant response rating (duck salad; [8]): 0; Ducksalad plant response rating (duck salad; [9]): 0; Ducksalad plant response rating (duck salad; [10]): 0; Ducksalad plant response rating (duck salad; [11]): 0; Barnyardgrass plant response rating (bamyardgrass; [8]): 0; Barnyardgrass plant response rating (bamyardgrass; [9]): 0; Barnyardgrass plant response rating (bamyardgrass; [10]): 0; Barnyardgrass plant response rating (bamyardgrass; [11]): 0
